Laboratory results from PubChem BioAssay AID504473 (NMMLSC, 2011).
Active and inactive are the calls of the source.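 Rule for the calls: active = GFP ratio to DMSO above 1.5 or below 0.66; inactive = the rest.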

Assays:
Test in all cases: TOR pathway GFP reporter clone modulation in yeast – S. cerevisiae, GFP-tagged clone panel, flow cytometry (AID 504473);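 note: median GFP fluorescence of the cells measured by high-throughput flow cytometry; test concentration not given here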
[1] = target: General amino acid permease AGP1 (Saccharomyces cerevisiae S288c) (UniProt P25376); conditions: S. cerevisiae GFP-tagged strains, 3 h, YCL025C
YAL060W = conditions: S. cerevisiae GFP-tagged strains, 3 h
YAL061W = conditions: S. cerevisiae GFP-tagged strains, 3 h
YBL087C = conditions: S. cerevisiae GFP-tagged strains, 3 h
YBR072W = conditions: S. cerevisiae GFP-tagged strains, 3 h
YBR139W = conditions: S. cerevisiae GFP-tagged strains, 3 h
YBR208C = conditions: S. cerevisiae GFP-tagged strains, 3 h
YBR248C = conditions: S. cerevisiae GFP-tagged strains, 3 h
YCL064C = conditions: S. cerevisiae GFP-tagged strains, 3 h
YCR002C = conditions: S. cerevisiae GFP-tagged strains, 3 h
YCR005C = conditions: S. cerevisiae GFP-tagged strains, 3 h
YDL130W = conditions: S. cerevisiae GFP-tagged strains, 3 h
YDL204W = conditions: S. cerevisiae GFP-tagged strains, 3 h
YDL205C = conditions: S. cerevisiae GFP-tagged strains, 3 h
YDR070C = conditions: S. cerevisiae GFP-tagged strains, 3 h
YDR382W = conditions: S. cerevisiae GFP-tagged strains, 3 h
YDR399W = conditions: S. cerevisiae GFP-tagged strains, 3 h
YDR453C = conditions: S. cerevisiae GFP-tagged strains, 3 h
YEL007W = conditions: S. cerevisiae GFP-tagged strains, 3 h
YEL060C = conditions: S. cerevisiae GFP-tagged strains, 3 h
YEL063C = conditions: S. cerevisiae GFP-tagged strains, 3 h
YEL071W = conditions: S. cerevisiae GFP-tagged strains, 3 h
YER081W = conditions: S. cerevisiae GFP-tagged strains, 3 h
YER117W = conditions: S. cerevisiae GFP-tagged strains, 3 h
YER151C = conditions: S. cerevisiae GFP-tagged strains, 3 h
YER156C = conditions: S. cerevisiae GFP-tagged strains, 3 h
YFR031C-A = conditions: S. cerevisiae GFP-tagged strains, 3 h
YFR053C = conditions: S. cerevisiae GFP-tagged strains, 3 h
YGL036W = conditions: S. cerevisiae GFP-tagged strains, 3 h
YGL062W = conditions: S. cerevisiae GFP-tagged strains, 3 h
YGL135W = conditions: S. cerevisiae GFP-tagged strains, 3 h
YGL147C = conditions: S. cerevisiae GFP-tagged strains, 3 h
YGR019W = conditions: S. cerevisiae GFP-tagged strains, 3 h
YGR034W = conditions: S. cerevisiae GFP-tagged strains, 3 h
YGR088W = conditions: S. cerevisiae GFP-tagged strains, 3 h
YGR121C = conditions: S. cerevisiae GFP-tagged strains, 3 h
YHL021C = conditions: S. cerevisiae GFP-tagged strains, 3 h
YHR018C = conditions: S. cerevisiae GFP-tagged strains, 3 h
YHR087W = conditions: S. cerevisiae GFP-tagged strains, 3 h
YHR141C = conditions: S. cerevisiae GFP-tagged strains, 3 h
YHR144C = conditions: S. cerevisiae GFP-tagged strains, 3 h
YHR203C = conditions: S. cerevisiae GFP-tagged strains, 3 h
YIL043C = conditions: S. cerevisiae GFP-tagged strains, 3 h
YIL051C = conditions: S. cerevisiae GFP-tagged strains, 3 h
YIL052C = conditions: S. cerevisiae GFP-tagged strains, 3 h
YIL066C = conditions: S. cerevisiae GFP-tagged strains, 3 h
YIL069C = conditions: S. cerevisiae GFP-tagged strains, 3 h
YJL056C = conditions: S. cerevisiae GFP-tagged strains, 3 h
YJL144W = conditions: S. cerevisiae GFP-tagged strains, 3 h
YJR148W = conditions: S. cerevisiae GFP-tagged strains, 3 h
YKL086W = conditions: S. cerevisiae GFP-tagged strains, 3 h
YKL103C = conditions: S. cerevisiae GFP-tagged strains, 3 h
YKL119C = conditions: S. cerevisiae GFP-tagged strains, 3 h
YKR039W = conditions: S. cerevisiae GFP-tagged strains, 3 h
YKR093W = conditions: S. cerevisiae GFP-tagged strains, 3 h
YKR094C = conditions: S. cerevisiae GFP-tagged strains, 3 h
YLL026W = conditions: S. cerevisiae GFP-tagged strains, 3 h
YLL039C = conditions: S. cerevisiae GFP-tagged strains, 3 h
YLR058C = conditions: S. cerevisiae GFP-tagged strains, 3 h
YLR109W = conditions: S. cerevisiae GFP-tagged strains, 3 h
YLR142W = conditions: S. cerevisiae GFP-tagged strains, 3 h
YLR185W = conditions: S. cerevisiae GFP-tagged strains, 3 h
YLR237W = conditions: S. cerevisiae GFP-tagged strains, 3 h
YLR287C-A = conditions: S. cerevisiae GFP-tagged strains, 3 h
YLR367W = conditions: S. cerevisiae GFP-tagged strains, 3 h
YML004C = conditions: S. cerevisiae GFP-tagged strains, 3 h
YML026C = conditions: S. cerevisiae GFP-tagged strains, 3 h
YML034W = conditions: S. cerevisiae GFP-tagged strains, 3 h
YML063W = conditions: S. cerevisiae GFP-tagged strains, 3 h
YML128C = conditions: S. cerevisiae GFP-tagged strains, 3 h
YMR105C = conditions: S. cerevisiae GFP-tagged strains, 3 h
YMR120C = conditions: S. cerevisiae GFP-tagged strains, 3 h
YMR251W-A = conditions: S. cerevisiae GFP-tagged strains, 3 h
YMR307W = conditions: S. cerevisiae GFP-tagged strains, 3 h
YNL015W = conditions: S. cerevisiae GFP-tagged strains, 3 h
YNL068C = conditions: S. cerevisiae GFP-tagged strains, 3 h
YNL112W = conditions: S. cerevisiae GFP-tagged strains, 3 h
YNL142W = conditions: S. cerevisiae GFP-tagged strains, 3 h
YNL214W = conditions: S. cerevisiae GFP-tagged strains, 3 h
YNR001C = conditions: S. cerevisiae GFP-tagged strains, 3 h
YOL052C-A = conditions: S. cerevisiae GFP-tagged strains, 3 h
YOR038C = conditions: S. cerevisiae GFP-tagged strains, 3 h
YOR063W = conditions: S. cerevisiae GFP-tagged strains, 3 h
YOR136W = conditions: S. cerevisiae GFP-tagged strains, 3 h
YOR173W = conditions: S. cerevisiae GFP-tagged strains, 3 h
YOR182C = conditions: S. cerevisiae GFP-tagged strains, 3 h
YOR371C = conditions: S. cerevisiae GFP-tagged strains, 3 h
YOR375C = conditions: S. cerevisiae GFP-tagged strains, 3 h
YPL111W = conditions: S. cerevisiae GFP-tagged strains, 3 h
YPL131W = conditions: S. cerevisiae GFP-tagged strains, 3 h
YPL150W = conditions: S. cerevisiae GFP-tagged strains, 3 h
YPL220W = conditions: S. cerevisiae GFP-tagged strains, 3 h
YPL265W = conditions: S. cerevisiae GFP-tagged strains, 3 h
YPR132W = conditions: S. cerevisiae GFP-tagged strains, 3 h
YPR145W = conditions: S. cerevisiae GFP-tagged strains, 3 h
YPR184W = conditions: S. cerevisiae GFP-tagged strains, 3 h

Chain of General amino acid permease AGP1 (Saccharomyces cerevisiae S288c) (P25376 whole entry, looked up): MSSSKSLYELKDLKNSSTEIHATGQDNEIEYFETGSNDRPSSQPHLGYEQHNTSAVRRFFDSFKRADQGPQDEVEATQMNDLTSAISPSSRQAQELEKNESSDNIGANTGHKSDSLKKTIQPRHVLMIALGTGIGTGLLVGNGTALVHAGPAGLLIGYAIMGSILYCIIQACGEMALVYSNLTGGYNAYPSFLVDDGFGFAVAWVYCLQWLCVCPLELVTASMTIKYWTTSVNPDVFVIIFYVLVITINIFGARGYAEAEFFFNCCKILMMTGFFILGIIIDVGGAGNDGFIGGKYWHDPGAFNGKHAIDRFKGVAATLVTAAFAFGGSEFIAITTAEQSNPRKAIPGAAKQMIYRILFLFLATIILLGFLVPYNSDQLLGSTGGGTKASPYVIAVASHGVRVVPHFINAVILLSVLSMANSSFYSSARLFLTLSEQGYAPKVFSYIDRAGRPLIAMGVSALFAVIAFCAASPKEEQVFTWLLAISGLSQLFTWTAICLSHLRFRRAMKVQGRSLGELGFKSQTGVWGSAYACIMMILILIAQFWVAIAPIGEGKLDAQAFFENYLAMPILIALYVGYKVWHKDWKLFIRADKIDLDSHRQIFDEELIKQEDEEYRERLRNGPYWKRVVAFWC

- GFP ratio to DMSO [1]: 0.804 (inactive)
SMILES: CNc1nc(N)c([N+](=O)[O-])c(Nc2ccccc2OC)n1
- GFP ratio to DMSO (YAL060W): 0.645
- GFP ratio to DMSO (YAL061W): 0.668 (inactive)
- GFP ratio to DMSO (YBL087C): 1.71
- GFP ratio to DMSO (YBR072W): 3.23
- GFP ratio to DMSO (YBR139W): 0.664 (inactive)
- GFP ratio to DMSO (YBR208C): 0.657 (inactive)
- GFP ratio to DMSO (YBR248C): 0.723 (inactive)
- GFP ratio to DMSO (YCL064C): 0.707 (inactive)
- GFP ratio to DMSO (YCR002C): 0.541
- GFP ratio to DMSO (YCR005C): 0.783 (inactive)
- GFP ratio to DMSO (YDL130W): 0.302
- GFP ratio to DMSO (YDL204W): 0.703 (inactive)
- GFP ratio to DMSO (YDL205C): 0.742 (inactive)
- GFP ratio to DMSO (YDR070C): 0.503
- GFP ratio to DMSO (YDR382W): 0.349
- GFP ratio to DMSO (YDR399W): 2.04
- GFP ratio to DMSO (YDR453C): 5.92
- GFP ratio to DMSO (YEL007W): 0.721 (inactive)
- GFP ratio to DMSO (YEL060C): 0.535
- GFP ratio to DMSO (YEL063C): 0.998 (inactive)
- GFP ratio to DMSO (YEL071W): 0.904 (inactive)
- GFP ratio to DMSO (YER081W): 0.632
- GFP ratio to DMSO (YER117W): 2.43
- GFP ratio to DMSO (YER151C): 0.745 (inactive)
- GFP ratio to DMSO (YER156C): 0.819 (inactive)
- GFP ratio to DMSO (YFR031C-A): 0.381
- GFP ratio to DMSO (YFR053C): 0.642
- GFP ratio to DMSO (YGL036W): 0.643
- GFP ratio to DMSO (YGL062W): 0.915 (inactive)
- GFP ratio to DMSO (YGL135W): 1.01 (inactive)
- GFP ratio to DMSO (YGL147C): 0.902 (inactive)
- GFP ratio to DMSO (YGR019W): 0.679 (inactive)
- GFP ratio to DMSO (YGR034W): 0.607
- GFP ratio to DMSO (YGR088W): 0.767 (inactive)
- GFP ratio to DMSO (YGR121C): 0.737 (inactive)
- GFP ratio to DMSO (YHL021C): 0.726 (inactive)
- GFP ratio to DMSO (YHR018C): 0.649
- GFP ratio to DMSO (YHR087W): 1.71
- GFP ratio to DMSO (YHR141C): 1.25 (inactive)
- GFP ratio to DMSO (YHR144C): 0.68 (inactive)
- GFP ratio to DMSO (YHR203C): 0.792 (inactive)
- GFP ratio to DMSO (YIL043C): 0.829 (inactive)
- GFP ratio to DMSO (YIL051C): 0.669 (inactive)
- GFP ratio to DMSO (YIL052C): 0.379
- GFP ratio to DMSO (YIL066C): 0.693 (inactive)
- GFP ratio to DMSO (YIL069C): 0.717 (inactive)
- GFP ratio to DMSO (YJL056C): 0.664 (inactive)
- GFP ratio to DMSO (YJL144W): 7.28
- GFP ratio to DMSO (YJR148W): 0.822 (inactive)
- GFP ratio to DMSO (YKL086W): 0.777 (inactive)
- GFP ratio to DMSO (YKL103C): 0.755 (inactive)
- GFP ratio to DMSO (YKL119C): 0.774 (inactive)
- GFP ratio to DMSO (YKR039W): 1.41 (inactive)
- GFP ratio to DMSO (YKR093W): 0.526
- GFP ratio to DMSO (YKR094C): 0.863 (inactive)
- GFP ratio to DMSO (YLL026W): 0.761 (inactive)
- GFP ratio to DMSO (YLL039C): 0.576
- GFP ratio to DMSO (YLR058C): 0.606
- GFP ratio to DMSO (YLR109W): 0.271
- GFP ratio to DMSO (YLR142W): 0.7 (inactive)
- GFP ratio to DMSO (YLR185W): 1.38 (inactive)
- GFP ratio to DMSO (YLR237W): 3.5
- GFP ratio to DMSO (YLR287C-A): 0.309
- GFP ratio to DMSO (YLR367W): 0.847 (inactive)
- GFP ratio to DMSO (YML004C): 0.689 (inactive)
- GFP ratio to DMSO (YML026C): 1.64
- GFP ratio to DMSO (YML034W): 0.676 (inactive)
- GFP ratio to DMSO (YML063W): 0.482
- GFP ratio to DMSO (YML128C): 0.697 (inactive)
- GFP ratio to DMSO (YMR105C): 0.849 (inactive)
- GFP ratio to DMSO (YMR120C): 0.433
- GFP ratio to DMSO (YMR251W-A): 0.286
- GFP ratio to DMSO (YMR307W): 0.757 (inactive)
- GFP ratio to DMSO (YNL015W): 1.84
- GFP ratio to DMSO (YNL068C): 0.738 (inactive)
- GFP ratio to DMSO (YNL112W): 0.867 (inactive)
- GFP ratio to DMSO (YNL142W): 0.756 (inactive)
- GFP ratio to DMSO (YNL214W): 0.786 (inactive)
- GFP ratio to DMSO (YNR001C): 0.75 (inactive)
- GFP ratio to DMSO (YOL052C-A): 2.31
- GFP ratio to DMSO (YOR038C): 0.771 (inactive)
- GFP ratio to DMSO (YOR063W): 0.813 (inactive)
- GFP ratio to DMSO (YOR136W): 0.793 (inactive)
- GFP ratio to DMSO (YOR173W): 0.726 (inactive)
- GFP ratio to DMSO (YOR182C): 3.17
- GFP ratio to DMSO (YOR371C): 0.67 (inactive)
- GFP ratio to DMSO (YOR375C): 0.81 (inactive)
- GFP ratio to DMSO (YPL111W): 0.779 (inactive)
- GFP ratio to DMSO (YPL131W): 0.657 (inactive)
- GFP ratio to DMSO (YPL150W): 0.677 (inactive)
- GFP ratio to DMSO (YPL220W): 0.579
- GFP ratio to DMSO (YPL265W): 0.542
- GFP ratio to DMSO (YPR132W): 1.76
- GFP ratio to DMSO (YPR145W): 0.81 (inactive)
- GFP ratio to DMSO (YPR184W): 0.669 (inactive)
